Literature values, collected in PMC8354143, “Cy3-RgIA-5727 Labels and Inhibits α9-Containing nAChRs of Cochlear Hair Cells” (Frontiers in Cellular Neuroscience, 2021).

What was measured:
[1] = tested on: voltage-gated calcium channels in the efferent terminals

Substance	antagonism of α9-containing nAChRs (α9-containing nAChRs)	time course of block of voltage-gated calcium channels [1]
α-Conotoxin-RgIA	specific and potent antagonist of α9-containing nAChRs	–
ω-conotoxin GVIA	–	15 to 20 min
